Data: patent publication EP0326329B1, “Quinazoline derivatives useful as insecticides” (Dow AgroSciences LLC, priority 1988, dated 1989)
Like-named read-outs stand apart in the source and are kept apart here.

Tests used:
Format in all cases: in vivo
[1] = tested on: Botrytis cinerea (gray mold); assay: Greenhouse Test 1, foliar spray fungicide screen (GRAY MOLD), host grape berries; details: disease control rating, 400 ppm (+++ at 100 ppm)
[2] = tested on: southern armyworm (Spodopetra eridania Cramer); assay: Mite/insect screen, sprayed squash leaves (SAW); details: percent mortality; for mortality at 200 ppm / mortality at 400 ppm: Spodoptera eridania, read-out: SAW RESULTS %
Summary of the method: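 Compounds dissolved in acetone/alcohol with TOXIMUL R/S emulsifiers, diluted with water to test concentrations, and sprayed to runoff on both leaf surfaces at 10 psi, then dried 1 h. Excised treated squash leaves given southern armyworm larvae; aphid and spider mite tests on sprayed squash cotyledons. Percent mortality and phytotoxicity scored after standard exposure.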

[3] = tested on: Puccinia recondita tritici (leaf rust); assay: Greenhouse Test 1, foliar spray fungicide screen (LEAF RUST), host wheat; details: disease control rating, 400 ppm (+++ at 100 ppm)
[4] = tested on: Southern corn rootworm (Diabrotica undecimpuctata howardi Barber); assay: Mite/insect screen, soil treatment (CRW); details: percent mortality, soil treatment; for mortality at 12 ppm / mortality at 24 ppm: Diabrotica, read-out: CRW RESULTS %
Summary of the method: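 Compounds dissolved in acetone/alcohol (50:50) with Toximul R/S emulsifiers, diluted with water. Soil (15 g, with presoaked corn seed) treated with 1 mL test solution, dried 6–12 h, then five 2–3 instar larvae added; held at 23°C. Percent mortality and phytotoxicity scored after standard exposure periods.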

[5] = tested on: melon aphids (Aphis gossypii Glover); assay: Mite/insect screen, sprayed squash cotyledons (MA); details: Aphis gossypii, percent mortality, read-out: MA RESULTS %
Summary of the method: (§1)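 Percent mortality and phytotoxicity are the read-outs, assessed after standard exposure periods. Test solutions, made in 50:50 acetone/alcohol with two sulfonate/nonionic emulsifier blends and diluted in water, are sprayed to runoff on both leaf surfaces, which then dry for one hour.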

[6] = tested on: Pseudoperonospora cubensis (downy mildew); assay: Greenhouse Test 1, foliar spray fungicide screen (DOWN MDEW), host squash; details: disease control rating, 400 ppm (+++ at 100 ppm)
[7] = tested on: Twospotted spider mites (Tetranychus urticae Koch); assay: Mite/insect screen, sprayed squash cotyledons (SM); details: Tetranychus urticae, percent mortality, read-out: SM RESULTS %
Summary of the method: as §1

[8] = tested on: Pyricularia oryzae (rice blast); details: disease control rating, foliar spray, host rice; 400 ppm (+++ at 100 ppm)
[9] = tested on: Erysiphe graminis tritici (powdery mildew); assay: Greenhouse Test 1, foliar spray fungicide screen (POWD MDEW), host wheat; details: disease control rating, 400 ppm (+++ at 100 ppm)

Compound	GRAY MOLD [1]	mortality at 200 ppm ([2]; spray rate 200 ppm)	mortality at 400 ppm ([2]; spray rate 400 ppm)	LEAF RUST [3]	mortality at 12 ppm ([4]; CRW rate 12.00 ppm)	mortality at 24 ppm ([4]; CRW rate 24.00 ppm)	mortality at 200 ppm ([5]; spray rate 200 ppm)	mortality at 400 ppm ([5]; spray rate 400 ppm)	DOWN MDEW [6]	mortality at 200 ppm ([7]; spray rate 200 ppm)	mortality at 400 ppm ([7]; spray rate 400 ppm)	RICE BLAST [8]	POWD MDEW [9]	other results
Oc1cccc(CCOc2ncnc3ccccc23)c1 [Example 111, 4-[2-(3-hydroxyphenyl)ethoxy]quinazoline]	- (- = 0-19% control at 400 ppm)	0%	0%	+ (+ = 20-89% control at 400 ppm)	0%	0%	0%	0%	+ (+ = 20-89% control at 400 ppm)	0%	0%	++ (++ = 90-100% control at 400 ppm)	- (- = 0-19% control at 400 ppm)	–
CC(COc1ncnc2c(F)cccc12)c1ccc(-c2ccccc2)cc1 (stereo not drawn) [Example 199, 8-fluoro-4-[2-(1,1'-biphenyl)4-ylpropoxy]quinazoline]	- (- = 0-19% control at 400 ppm)	–	–	+++ (+++ = 90-100% control at 100 ppm)	–	–	–	–	+ (+ = 20-89% control at 400 ppm)	–	–	+ (+ = 20-89% control at 400 ppm)	+++ (+++ = 90-100% control at 100 ppm)	mortality at 200 ppm ([2]; Southern armyworm, sprayed squash leaves, RATE 200 PPM): 0%; mortality at 400 ppm ([2]; Southern armyworm, sprayed squash leaves, RATE 400 PPM): 60%; mortality at 12 ppm ([4]; corn rootworm, CRW RATE 12.00 PPM): 0%; mortality at 24 ppm ([4]; corn rootworm, CRW RATE 24.00 PPM): 0%; mortality at 200 ppm ([5]; melon aphids, sprayed squash cotyledons, RATE 200 PPM): 100%; mortality at 400 ppm ([5]; melon aphids, sprayed squash cotyledons, RATE 400 PPM): 0%; mortality at 200 ppm ([7]; twospotted spider mites, sprayed squash cotyledons, RATE 200 PPM): 100%; mortality at 400 ppm ([7]; twospotted spider mites, sprayed squash cotyledons, RATE 400 PPM): 0%
Clc1ccc2c(NCCc3cccc(Oc4ccccc4)c3)ncnc2c1 [Example 171, 7-chloro-N-[2-(3-phenoxyphenyl)ethyl]-4-quinazolinamine]	- (- = 0-19% control at 400 ppm)	0%	0%	+++ (+++ = 90-100% control at 100 ppm)	0%	0%	80%	80%	+++ (+++ = 90-100% control at 100 ppm)	20%	40%	+++ (+++ = 90-100% control at 100 ppm)	+++ (+++ = 90-100% control at 100 ppm)	–
c1ccc(Oc2cccc(CCOc3ncnc4ccccc34)c2)cc1 [Example 68, 4-[2-(3-phenoxyphenyl)ethoxy]quinazoline]	- (- = 0-19% control at 400 ppm)	–	0%	+++ (+++ = 90-100% control at 100 ppm)	–	0%	–	100%	+++ (+++ = 90-100% control at 100 ppm)	–	90%	+++ (+++ = 90-100% control at 100 ppm)	+++ (+++ = 90-100% control at 100 ppm)	–
c1ccc2cc(CCOc3ncnc4ccccc34)ccc2c1 [Example 80, 4-[2-(2-naphthyl)ethoxy]quinazoline]	- (- = 0-19% control at 400 ppm)	–	0%	+++ (+++ = 90-100% control at 100 ppm)	–	100%	–	100%	+++ (+++ = 90-100% control at 100 ppm)	–	100%	+++ (+++ = 90-100% control at 100 ppm)	+++ (+++ = 90-100% control at 100 ppm)	–
CC(C)c1ccc(CCOc2ncnc3c(F)cccc23)cc1 [Example 16, 8-fluoro-4-[2-[4-(i-propyl)phenyl]ethoxy]-quinazoline]	- (- = 0-19% control at 400 ppm)	–	0%	+++ (+++ = 90-100% control at 100 ppm)	–	0%	–	0%	+++ (+++ = 90-100% control at 100 ppm)	–	0%	+++ (+++ = 90-100% control at 100 ppm)	+++ (+++ = 90-100% control at 100 ppm)	–
CC(C)c1ccccc1CCOc1ncnc2c(F)cccc12 [Example 195, 8-fluoro-4-[2-[2-(i-propyl)phenyl]ethoxy]quinazoline]	- (- = 0-19% control at 400 ppm)	0%	0%	+++ (+++ = 90-100% control at 100 ppm)	0%	0%	80%	0%	++ (++ = 90-100% control at 400 ppm)	0%	0%	+++ (+++ = 90-100% control at 100 ppm)	+++ (+++ = 90-100% control at 100 ppm)	–
Clc1cccc2c(NCCc3cccc(Oc4ccccc4)c3)ncnc12 [Example 166, 8-chloro-N-[2-(3-phenoxyphenyl)ethyl]-4-quinazolinamine]	- (- = 0-19% control at 400 ppm)	0%	0%	+++ (+++ = 90-100% control at 100 ppm)	0%	0%	0%	60%	+ (+ = 20-89% control at 400 ppm)	0%	0%	++ (++ = 90-100% control at 400 ppm)	+ (+ = 20-89% control at 400 ppm)	–
CCOc1ccc(CCOc2ncnc3c(F)cccc23)cc1 [Example 170, 4-[2-(4-ethoxyphenyl)ethoxy]-8-fluoroquinazoline]	- (- = 0-19% control at 400 ppm)	0%	100%	+++ (+++ = 90-100% control at 100 ppm)	0%	0%	80%	100%	+++ (+++ = 90-100% control at 100 ppm)	20%	100%	+++ (+++ = 90-100% control at 100 ppm)	+++ (+++ = 90-100% control at 100 ppm)	–
Fc1cccc2c(OCCc3cccc(C(F)(F)F)c3)ncnc12 [Example 133, 8-fluoro-4-[2-[3-(trifluoromethyl)phenyl]ethoxy]quinazoline]	- (- = 0-19% control at 400 ppm)	0%	0%	+++ (+++ = 90-100% control at 100 ppm)	0%	100%	–	100%	+ (+ = 20-89% control at 400 ppm)	–	100%	+++ (+++ = 90-100% control at 100 ppm)	+++ (+++ = 90-100% control at 100 ppm)	SAW RESULTS % ([2]; spray rate 200 ppm): 0%; CRW RESULTS % ([4]; CRW rate 12.00 ppm): 0%
Clc1ccc(CCCc2ncnc3ccccc23)cc1 [Example 117, 4-[3-(4-chlorophenyl)propyl]quinazoline]	- (- = 0-19% control at 400 ppm)	0%	0%	+++ (+++ = 90-100% control at 100 ppm)	0%	0%	90%	0%	++ (++ = 90-100% control at 400 ppm)	100%	0%	++ (++ = 90-100% control at 400 ppm)	+++ (+++ = 90-100% control at 100 ppm)	–
FC(F)(F)c1cccc(CCCOc2ncnc3ccccc23)c1 [Example 196, 4-[3-(3-trifluoromethylphenyl)propoxy]quinazoline]	- (- = 0-19% control at 400 ppm)	0%	0%	- (- = 0-19% control at 400 ppm)	0%	0%	0%	0%	- (- = 0-19% control at 400 ppm)	0%	0%	- (- = 0-19% control at 400 ppm)	++ (++ = 90-100% control at 400 ppm)	–
